Our source for the IC50 cell viability values is the supplement of paper PMC12137928.

Structures can show the parent of a compound that is named as a salt.

In this test the test system is HCT116. The settings on record: 72 h. The essentials:
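HCT116 cells were seeded at 250 per well in 1536-well plates and left 5 h to attach. CellTiter-Glo luminescence was scaled to vehicle (0%) and positive control (-100%), then pattern-corrected. IC50 and maximal efficacy came from four-parameter Hill fits.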

With `CCOc1ccc(Cc2cc([C@@H]3O[C@H](CO)[C@@H](O)[C@H](O)[C@H]3O)ccc2Cl)cc1` [Dapagliflozin], the IC50 cell viability is, setting by setting: (ICRF193 0 nM) over 45.8 µM; (ICRF193 200 nM) over 45.8 µM.

For the molecule `C=C/C=C\CC1=C(C)[C@@H](OC(=O)[C@@H]2[C@@H](/C=C(\C)C(=O)OC)C2(C)C)CC1=O` [PYRETHRIN II], the IC50 cell viability is, setting by setting: (ICRF193 0 nM) over 45.8 µM; (ICRF193 200 nM) over 45.8 µM.

For the molecule `OC/C=C/c1ccccc1` [Cinnamyl alcohol], the IC50 cell viability runs as follows: (ICRF193 0 nM) over 45.8 µM; (ICRF193 200 nM) over 45.8 µM.

As for `c1ccc2c(c1)CCCC2C1=NCCN1` (stereo unspecified) [Tetrahydrozoline HCl], the IC50 cell viability by setting is: (ICRF193 0 nM) over 45.8 µM; (ICRF193 200 nM) over 45.8 µM.

Regarding `CC1(O)CCC(C(C)(C)O)CC1` (stereo unspecified) [p-Menthane-1,8-diol monohydrate], the IC50 cell viability (ICRF193 0 nM) was over 45.8 µM and the IC50 cell viability (ICRF193 200 nM) was over 45.8 µM.

Consider `CC1CC(OC(=O)c2ccccc2O)CC(C)(C)C1` (stereo unspecified) [3,3,5-Trimethylcyclohexyl salicylate], for which the IC50 cell viability is, setting by setting: (ICRF193 0 nM) over 45.8 µM; (ICRF193 200 nM) over 45.8 µM.

In turn, `C[N+](C)(CCCCCC[N+](C)(C)C1c2ccccc2-c2ccccc21)C1c2ccccc2-c2ccccc21` [Hexafluorenium dibromide] registered an IC50 cell viability (ICRF193 0 nM) of over 45.8 µM and an IC50 cell viability (ICRF193 200 nM) of over 45.8 µM.

As to `COC(=O)N(C)c1c(N)nc(-c2nn(Cc3ccccc3F)c3ncccc23)nc1N` [Riociguat], the IC50 cell viability is over 45.8 µM (ICRF193 0 nM) and over 45.8 µM (ICRF193 200 nM).

Regarding `N#Cc1cc(NC(=O)C(=O)O)c(Cl)c(NC(=O)C(=O)O)c1` [Lodoxamide], the IC50 cell viability was over 45.8 µM (ICRF193 0 nM) and over 45.8 µM (ICRF193 200 nM).

`CO[C@H]1[C@@H](O)[C@H](N)[C@@H](O[C@H]2O[C@H]([C@H](C)N)CC[C@H]2N)[C@H](O)[C@@H]1N(C)C(=O)CN` [Astromicin] had an IC50 cell viability (ICRF193 0 nM) of over 45.8 µM and an IC50 cell viability (ICRF193 200 nM) of over 45.8 µM.

Take `OC(CN1CCCCC1)c1cc(-c2ccccc2)on1` (stereo unspecified) [Perisoxal citrate]: the IC50 cell viability is, setting by setting: (ICRF193 0 nM) over 45.8 µM; (ICRF193 200 nM) over 45.8 µM.

For `CC(=C(CCOC(=O)C(C)C)SSC(CCOC(=O)C(C)C)=C(C)N(C=O)Cc1cnc(C)nc1N)N(C=O)Cc1cnc(C)nc1N` [Bisibutiamine], the IC50 cell viability runs as follows: (ICRF193 0 nM) over 45.8 µM; (ICRF193 200 nM) over 45.8 µM.

With `CC(C)OC(=O)[C@H](C)N[P@](=O)(CO[C@H](C)Cn1cnc2c(N)ncnc21)Oc1ccccc1` [GS-7340], the IC50 cell viability is, setting by setting: (ICRF193 0 nM) over 45.8 µM; (ICRF193 200 nM) over 45.8 µM.

In the case of `CCCCOc1cc(C(=O)NCCN(CC)CC)c2ccccc2n1` [Dibucaine], the IC50 cell viability is over 45.8 µM (ICRF193 0 nM) and over 45.8 µM (ICRF193 200 nM).

On to `C[N+]1(C)[C@@H]2CC[C@H]1C[C@@H](OC(=O)C(CO)c1ccccc1)C2` (stereo partly specified) [Methylatropine nitrate], for which the IC50 cell viability reads like this: (ICRF193 0 nM) over 45.8 µM; (ICRF193 200 nM) over 45.8 µM.

For `Oc1ccc([C@@H]2CNCc3c2ccc(O)c3O)cc1O` [Zelandopam], the IC50 cell viability was over 45.8 µM (ICRF193 0 nM) and over 45.8 µM (ICRF193 200 nM).

For the molecule `N[C@@H](CSSC[C@H](N)C(=O)O)C(=O)O` [L-Cystine], the IC50 cell viability reads like this: (ICRF193 0 nM) over 45.8 µM; (ICRF193 200 nM) over 45.8 µM.

For `CN(C)c1cc(NC(=O)CNC(C)(C)C)c(O)c2c1C[C@H]1C[C@H]3[C@H](N(C)C)C(O)=C(C(N)=O)C(=O)[C@@]3(O)C(O)=C1C2=O` [Tigecycline], the IC50 cell viability was over 45.8 µM (ICRF193 0 nM) and over 45.8 µM (ICRF193 200 nM).

The molecule `CCOC(=O)N[C@@H]1CC[C@@H]2[C@@H](C1)C[C@H]1C(=O)O[C@H](C)[C@H]1[C@H]2/C=C/c1ccc(-c2cccc(F)c2)cn1` [Vorapaxar Sulfate] showed an IC50 cell viability (ICRF193 0 nM) of over 45.8 µM and an IC50 cell viability (ICRF193 200 nM) of over 45.8 µM.

Consider `Nc1cc(N2CCCCC2)nc(N)[n+]1[O-]` [Minoxidil], for which the IC50 cell viability by setting is: (ICRF193 0 nM) over 45.8 µM; (ICRF193 200 nM) over 45.8 µM.

`Cc1cc(O)c2c(O)c3c(O)cccc3cc2c1` [Chrysarobin]: the IC50 cell viability is, setting by setting: (ICRF193 0 nM) over 45.8 µM; (ICRF193 200 nM) over 45.8 µM.

On to `COc1ccc(OC)c(C(O)CNC(=O)CN)c1` (stereo unspecified) [Midodrine hydrochloride], for which the IC50 cell viability is, setting by setting: (ICRF193 0 nM) over 45.8 µM; (ICRF193 200 nM) over 45.8 µM.

As for `O=C(NN1CCCC1)NS(=O)(=O)c1ccc(Cl)cc1` [Glyclopyramide], the IC50 cell viability reads like this: (ICRF193 0 nM) over 45.8 µM; (ICRF193 200 nM) over 45.8 µM.

Consider `NCc1ccc(S(N)(=O)=O)cc1` [Mafenide hydrochloride], for which the IC50 cell viability runs as follows: (ICRF193 0 nM) over 45.8 µM; (ICRF193 200 nM) over 45.8 µM.

In the case of `C#C[C@]1(O)CC[C@H]2[C@@H]3CCc4cc(OC)ccc4[C@H]3CC[C@@]21C` [Mestranol], the IC50 cell viability was over 45.8 µM (ICRF193 0 nM) and over 45.8 µM (ICRF193 200 nM).

Take `CCC[C@H](N[C@@H](C)C(=O)N1[C@H](C(=O)O)C[C@@H]2CCCC[C@@H]21)C(=O)OCC` [Perindopril]: the IC50 cell viability was over 45.8 µM (ICRF193 0 nM) and over 45.8 µM (ICRF193 200 nM).

As to `CN(Cc1ccc(C(C)(C)C)cc1)Cc1cccc2ccccc12` [Butenafine], the IC50 cell viability by setting is: (ICRF193 0 nM) over 45.8 µM; (ICRF193 200 nM) over 45.8 µM.

In turn, `CS(=O)(=O)OCCCNCCCOS(C)(=O)=O` [Improsulfan tosylate] came in with an IC50 cell viability (ICRF193 0 nM) of over 45.8 µM and an IC50 cell viability (ICRF193 200 nM) of over 45.8 µM.

With `Nc1cc(-c2ccncc2)c[nH]c1=O` [Amrinone], the IC50 cell viability runs as follows: (ICRF193 0 nM) over 45.8 µM; (ICRF193 200 nM) over 45.8 µM.

For the molecule `O=C(O)CSCC(=O)NC1CCSC1=O` (stereo unspecified) [Erdosteine], the IC50 cell viability is, setting by setting: (ICRF193 0 nM) over 45.8 µM; (ICRF193 200 nM) over 45.8 µM.

`COc1cc(C(=O)NS(=O)(=O)c2ccccc2C)ccc1Cc1cn(C)c2ccc(NC(=O)OC3CCCC3)cc12` [Zafirlukast] showed an IC50 cell viability (ICRF193 0 nM) of over 45.8 µM and an IC50 cell viability (ICRF193 200 nM) of over 45.8 µM.

`C[C@H](CCC(=O)O)[C@H]1CC[C@H]2[C@@H]3[C@H](O)C[C@@H]4C[C@H](O)CC[C@]4(C)[C@H]3C[C@H](O)[C@]12C` [Cholic Acid]: the IC50 cell viability runs as follows: (ICRF193 0 nM) over 45.8 µM; (ICRF193 200 nM) over 45.8 µM.

For the molecule `CC(=O)/C=C/C=C1/C2CCC(C2)C1(C)C` (stereo unspecified) [Bornelone], the IC50 cell viability by setting is: (ICRF193 0 nM) over 45.8 µM; (ICRF193 200 nM) over 45.8 µM.

As to `Nc1nc(/C(=C/CC(=O)O)C(=O)N[C@@H]2C(=O)N3C(C(=O)O)=CCS[C@H]23)cs1` [CEFTIBUTEN], the IC50 cell viability reads like this: (ICRF193 0 nM) over 45.8 µM; (ICRF193 200 nM) over 45.8 µM.

With `CN(C)CC/C=C1/c2ccccc2COc2ccc(CC(=O)O)cc21` [Olopatadine hydrochloride], the IC50 cell viability (ICRF193 0 nM) was over 45.8 µM and the IC50 cell viability (ICRF193 200 nM) was over 45.8 µM.

Take `C[N+]1(C)CCCC(OC(=O)C(O)(c2ccccc2)c2ccccc2)C1` (stereo unspecified) [Mepenzolate bromide]: the IC50 cell viability is over 45.8 µM (ICRF193 0 nM) and over 45.8 µM (ICRF193 200 nM).

As for `CCN(CC)CC(=O)OCC(=O)[C@@]1(O)CC[C@H]2[C@@H]3CCC4=CC(=O)CC[C@]4(C)[C@H]3[C@@H](O)C[C@@]21C` [Hydrocortamate], the IC50 cell viability runs as follows: (ICRF193 0 nM) over 45.8 µM; (ICRF193 200 nM) over 45.8 µM.

For the molecule `CC(C)(C(=O)O)c1ccc(C(O)CCCN2CCC(C(O)(c3ccccc3)c3ccccc3)CC2)cc1` (stereo unspecified) [Fexofenadine hydrochloride], the IC50 cell viability (ICRF193 0 nM) was over 45.8 µM and the IC50 cell viability (ICRF193 200 nM) was over 45.8 µM.

Take `CC(=O)Oc1ccc(C(=C2CCCCC2)c2ccc(OC(C)=O)cc2)cc1` [Cyclofenil]: the IC50 cell viability by setting is: (ICRF193 0 nM) over 45.8 µM; (ICRF193 200 nM) over 45.8 µM.

`CC1(C)O[C@H]2CC(=O)OC[C@]23[C@H]2CC[C@@]4(C)[C@H](c5ccoc5)OC(=O)[C@H]5O[C@]54[C@]2(C)C(=O)C[C@@H]13` [Limoni]: the IC50 cell viability runs as follows: (ICRF193 0 nM) over 45.8 µM; (ICRF193 200 nM) over 45.8 µM.

`CC1(C)S[C@@H]2[C@H](NC(=O)[C@H](C(=O)O)c3ccsc3)C(=O)N2[C@H]1C(=O)O` [Ticarcillin sodium] returned an IC50 cell viability (ICRF193 0 nM) of over 45.8 µM and an IC50 cell viability (ICRF193 200 nM) of over 45.8 µM.

For `OCc1cc([C@@H](O)CNCCCCCCOCCOCc2c(Cl)cccc2Cl)ccc1O`, the IC50 cell viability is over 45.8 µM (ICRF193 0 nM) and over 45.8 µM (ICRF193 200 nM).

With `CN(C)CCN(Cc1ccsc1)c1ccccn1` [Thenyldiamine], the IC50 cell viability (ICRF193 0 nM) was over 45.8 µM and the IC50 cell viability (ICRF193 200 nM) was over 45.8 µM.

As for `O=C(O)CCc1nc(-c2ccccc2)c(-c2ccccc2)o1` [Oxaprozin], the IC50 cell viability reads like this: (ICRF193 0 nM) over 45.8 µM; (ICRF193 200 nM) over 45.8 µM.

`Clc1cccc(C(c2ccc3[nH]cnc3c2)n2ccnc2)c1` (stereo unspecified) [Liarozole] returned an IC50 cell viability (ICRF193 0 nM) of over 45.8 µM and an IC50 cell viability (ICRF193 200 nM) of over 45.8 µM.

Take `O=C(O)[C@@H]1CCCN1` [L-Proline]: the IC50 cell viability reads like this: (ICRF193 0 nM) over 45.8 µM; (ICRF193 200 nM) over 45.8 µM.

Take `CC[C@@H]1C(=O)OC[C@@H]1Cc1cncn1C` [Pilocarpine]: the IC50 cell viability (ICRF193 0 nM) was over 45.8 µM and the IC50 cell viability (ICRF193 200 nM) was over 45.8 µM.

In the case of `Cn1c(=O)c2c(ncn2C)n(C)c1=O` [Caffeine], the IC50 cell viability was over 45.8 µM (ICRF193 0 nM) and over 45.8 µM (ICRF193 200 nM).

Take `Nc1ccc(/N=N/c2ccccc2)c(N)n1` [Phenazopyridine hydrochloride]: the IC50 cell viability is over 45.8 µM (ICRF193 0 nM) and over 45.8 µM (ICRF193 200 nM).

Turning to `CN1[C@@H]2CC[C@H]1C[C@@H](OC(c1ccccc1)c1ccccc1)C2` [Benztropine mesylate], the IC50 cell viability is over 45.8 µM (ICRF193 0 nM) and over 45.8 µM (ICRF193 200 nM).

As to `C#CCN(C)Cc1ccccc1` [Pargyline hydrochloride], the IC50 cell viability is over 45.8 µM (ICRF193 0 nM) and over 45.8 µM (ICRF193 200 nM).

On to `N[C@@H](C(=O)N[C@@H]1C(=O)N2C(C(=O)O)=C(Cl)CC[C@H]12)c1ccccc1` [Loracarbef], for which the IC50 cell viability is, setting by setting: (ICRF193 0 nM) over 45.8 µM; (ICRF193 200 nM) over 45.8 µM.

As to `CC(=O)OC[C@H]1O[C@@](COC(C)=O)(O[C@H]2O[C@H](COC(C)=O)[C@@H](OC(C)=O)[C@H](OC(C)=O)[C@H]2OC(C)=O)[C@@H](OC(C)=O)[C@@H]1OC(C)=O` [Sucrose octaacetate], the IC50 cell viability (ICRF193 0 nM) is over 45.8 µM and the IC50 cell viability (ICRF193 200 nM) was over 45.8 µM.
